From patent US6900195B2, “Manzamines for treatment of drug resistant infection” (The University of Mississippi, priority 2000, dated 2005)
In brackets after ≈: the same amount, converted by molar mass. Where two headings read alike, the source gives them in different places.

Legend:
[1] = system: M. tuberculosis (H37Rv); assay: microbe, parasite or virus in culture; assay type: cell-based, Mycobacterium tuberculosis
[2] = system: P. berghei N strain; assay: Oral antimalarial activity against P. berghei N strain; assay type: in vivo, Plasmodium berghei; conditions: orally in DMSO, preliminary results
[3] = Cytotoxicity of microbial metabolites versus parent compounds (cells not stated); assay type: cell-based
[4] = system: P. falciparum D6 clone (Sierra Leone, chloroquine-sensitive); assay: In vitro antimalarial activity, parasite LDH assay, D6 clone; assay type: cell-based, Plasmodium falciparum; conditions: for IC50: Plasmodium falciparum
[5] = system: P. falciparum W2 clone (Indochina, chloroquine-resistant); assay: In vitro antimalarial activity, parasite LDH assay, W2 clone; assay type: cell-based, Plasmodium falciparum; conditions: for IC50: Plasmodium falciparum
[6] = system: Vero cells; conditions: African green monkey, 48 h
[7] = system: P. berghei; assay: In vivo antimalarial activity in P. berghei-infected mice; design: species or system Plasmodium berghei; conditions: for reduction of parasitemia: single i.p. 100 μmoles/kg, comparison 2 days after treatment
Method: In Vivo Evaluation of Antimalarial Activity. (National University of Singapore by Dr. Kenny Ang, confirmation of activity at the WHO). Four-week-old, male Swiss albino mice are injected intraperitoneally with 10^7 P. berghei-infected mouse erythrocytes. On day 2 after infection, mice are treated with a single intraperitoneal injection of either the test compound or a reference drug (chloroquine or artemisinin) within a concentration range of 50 to 1,000 μmol/kg of body weight. All test compounds and reference drugs were injected as a suspension in 5% Tween 60 saline. For oral administration, the test compounds are given as a suspension in corn oil, and mice are given two consecutive doses of test compound at 100 μmol/kg on days 2 and 3 after infection. […] Control mice receive only 5% Tween 60 saline or corn oil. Survival of mice was recorded daily. Percent parasitemia is determined microscopically (magnification, ×1,000) from mouse-tail blood smears that were fixed with methanol and stained with Giemsa stain. Blood samples from individual P. berghei-infected mice were collected at various times after a single intraperitoneal treatment of 100 μmol/kg of manzamine A per kg on day 3 after infection. For transmission electron microscopy, approximately 0.5-ml blood samples are fixed with 3% glutaraldehyde in 0.1 M cacodylate buffer (pH 7.4), postfixed with 1% osmium tetroxide and 1% uranyl acetate, dehydrated in a graded ethanol series, and embedded in Spurr's resin. The resulting blocks are cut by using a Reichert-Jung Ultracut with a glass knife. Ultra thin sections were mounted on 150-mesh copper grids, stained with 1% uranyl acetate and 1% lead citrate, and examined with a JEM-100CX electron microscope. Manzamine in plasma was detected by liquid chromatography=selected reaction monitoring-mass spectrometry (LC-SRM-MS). P. berghei-infected mice will be treated with the alkaloid (100 μmol/kg intraperitoneally) on day 3 post infection. Blood samples are collected from individual mice at specific times up to 48 h posttreatment. Plasma was isolated by centrifugation and extracted with 95% acetonitrile containing 5 mM ammonium acetate. The plasma extract was filtered, and 5 μl samples are injected into a Shimadzu LC-10 AD microbore high-pressure liquid chromatograph interfaced with a Perkin-Elmer API 300 turbo-ion-spray tandem mass spectrometer. Samples are separated on a Prodigy C-18 column (30 by 1 mm, 5-μm inner diameter) by elution at 50 μl/min with 86% acetonitrile containing 5 mM ammonium acetate. Manzamine can be detected by monitoring the transition of the protonated manzamine precursor ion from the (M+H)^+ to the (M+H —H2O)^+. Peak areas for the product ion chromatograms are integrated, and concentrations are determined from a linear calibration curve for manzamine in spiked plasma. The limit of detection for the manzamines in plasma by LC-SRM-MS is 2.5 pg. Results are subjected to a nonparametric statistical assessment with a confidence interval of 99% (p<0.01) by using Analyse-it software linked to Microsoft Excel. The program uses the Mann-Whitney U test to determine significant differences between two groups of data.

[8] = system: Vero cells; assay: In vitro cytotoxicity to mammalian cells (neutral red)
[9] = system: human PBM cells; assay: Cytotoxicity in human PBM cells; conditions: read-out: Cytotoxicity in human PBM cells IC50
[10] = system: HIV-1 in human PBM cells; assay: Anti-HIV activity in human PBM cells; assay type: cell-based
[11] = system: P. berghei; assay: In vivo antimalarial activity in P. berghei-infected mice; design: species or system Plasmodium berghei; conditions: three 50 μmoles/kg i.p. doses
[12] = Cytotoxicity in human PBM cells; conditions: human
[13] = system: Plasmodium yoelii NS malaria strain; assay: WHO Peters 4-day assay, Plasmodium yoelii NS in mice; assay type: in vivo
Excerpt: To confirm the activity of the manzamines against malaria the World Health Organization examined manzamine A against the Plasmodium yoelii NS malaria strain in mice (Peters 4-day assay-Handbook of Animal Models of Infection Chapter 92, Academic Press 1999).

[14] = system: T. gondii (C56 strain); assay: Survival of mice infected orally with T. gondii cysts; assay type: in vivo, Toxoplasma gondii
Excerpt: Toxoplasma gondii. […] Untreated infected mice in the control group started dying 10 days post infection. Mice treated with manzamine A died nine days after treatment stopped. […] FIGS. 1 and 2 provide the graphic results of this experiment. […] Treatment was begun on Day 1 following in infection and continued for 8 days.

[15] = Cytotoxicity against human lung and colon carcinoma cells; assay type: cell-based
[16] = system: P-388 mouse lymphoma cells; conditions: cited from earlier work
[17] = system: P-388 mouse lymphoma cells; assay: Cytotoxicity against P-388 mouse lymphoma cells; assay type: cell-based
[18] = system: human lung and colon carcinoma cells; conditions: cited from earlier work
[19] = M. tuberculosis H37Rv, test concentration not given
[20] = Mycobacterium tuberculosis, M. tuberculosis H37Rv, read-out: MIC
[21] = P. falciparum W2 clone, read-out: W2 Clone IC50
[22] = P. berghei-infected mice, single i.p. dose 100 μmoles/kg

## 8,12-di-O-acetyl ent-8-hydroxymanzamine A [ent-8-Hydroxymanzamine A diAc]
[1]; M. tuberculosis H37Rv
  MIC: <6.25 µg/mL
[1]; [19]
  % Inhibition: 95%

## 8-hydroxymanzamine
[2]
  ED50: < 10 mg/kg

## 15,16,32,33-tetrahydro-ent-8-hydroxymanzamine A
[1]; M. tuberculosis H37Rv
  MIC: <6.25 µg/mL
[1]; [19]
  % Inhibition: 100%

## O[C@]12C=C(c3nccc4c3[nH]c3ccccc34)C3CCN(CCCC/C=C\CC1)C[C@@]31C[C@]34CC[C@H](CCCN3[C@H]12)O4 (some centres unmarked) [6-Deoxymanzamine X, 6-deoxymanzamine X]
[1]; M. tuberculosis H37Rv
  MIC: <12.5 µg/mL
[1]; [19]
  % Inhibition: 98%

## O=C1CCCN2[C@H]3[C@]45CN6CCCC/C=C\CC[C@]3(C=C(c3nccc7c3[nH]c3c(O)cccc37)[C@H]4CC6)O[C@@]2(CC1)C5 [8-HOMA Metabolite 1]
[1]; [19]
  % Inhibition: 98%
[1]; [20]
  MIC: < 12.5 µg/mL
[3]
  cytotoxicity relative to the parent compounds: less cytotoxic than the parent compounds

## C[C@@H]1CC[C@H]2[C@@H](C)C(=O)O[C@@H]3O[C@@]4(C)CC[C@@H]1[C@]32OO4 [Artemisinin, artemisinin, reference compound]
[4]; P. falciparum D6 clone, read-out: D6 Clone IC50
  IC50: 0.01 µg/mL (≈ 0.0354 µM)
[5]; [21]
  IC50: 0.0063 µg/mL (≈ 0.0223 µM)
[6]
  Cytotoxicity TC50: >5,000 ng/mL
[7]; [22]
  average survival days: 2 to 3 days

## CCN(CC)CCCC(C)Nc1ccnc2cc(Cl)ccc12 (centres unmarked) [Chloroquine, chloroquine, reference compound]
[8]
  Cytotoxicity TC50: >5,000 ng/mL
[4]; D6, read-out: D6 Clone IC50
  IC50: 0.0155 µg/mL (≈ 0.0485 µM)
[5]; [21]
  IC50: 0.17 µg/mL (≈ 0.531 µM)
[7]; P. berghei-infected mice
  reduction of parasitemia: comparable reduction of parasitemia
[7]; in vivo, ip
  average survival days: 6 days

## O=CC1=C[C@@]2(O)CC/C=C\CCCCN3CC[C@@H]1[C@]1(CC4/C=C\CCCCN4[C@H]12)C3 (some centres unmarked) [Ircinal A]
[9]
  IC50: 34.2 µM
[10]; human PBM cells
  EC50: 45.2 µM
[1]; M. tuberculosis H37Rv
  MIC: <12.5 µg/mL
[1]; [19]
  % Inhibition: 98%
[7]; mice
  activity in vivo against malaria: failed to show any activity in vivo against malaria
[3]
  cytotoxicity relative to the parent compounds: less cytotoxic than the parent compounds

## O[C@]12C=C(c3nccc4c3[nH]c3ccccc34)[C@@H]3CCN(CCCC/C=C\CC1)C[C@@]31C[C@@H]3/C=C\CCCCN3[C@@H]12 [Manzamine A]
[11]
  outcome after three doses: curative and totally clears the parasite
[12]
  IC50: 5.1 µM
[8]
  Cytotoxicity TC50: 290 ng/mL
[10]; Human immunodeficiency virus 1, PBMC
  EC50: 12.9 µM
[13]; Plasmodium yoelii, 96 h
  ED50: < 5 mg/kg
[13]; given orally in DMSO or carboxy-methylcellulose-based formulation
  activity relative to Na artesunate: more active than Na artesunate
[4]; D6, read-out: D6 Clone IC50
  IC50: 0.0045 µg/mL (≈ 0.0082 µM)
[4]; Vero TC50 relative to D6 IC50
  Selectivity index (SI), D6 clone: SI = 64
[5]; W2, read-out: W2 Clone IC50
  IC50: 0.008 µg/mL (≈ 0.0146 µM)
[5]; Vero TC50 relative to W2 IC50
  Selectivity index (SI), W2 clone: SI = 36
[1]; [19]
  % Inhibition: 99%
[1]; [20]
  MIC: 1.56 µg/mL (≈ 2.84 µM)
[14]; 8 mg/kg i.p. once a day for 8 days
  time of death after treatment stopped: nine
[14]; 8 mg/kg i.p. once a day for 8 days (paralysis, blindness, twirling)
  signs or behavior during treatment: no uncommon signs or behavior
[14]; 8 mg/kg i.p. once a day for 8 days, all control mice had died by day 16
  survival at day 16 of infection: all the manzamine A treated mice were alive
[14]; SW mice, 10 cysts C56 orally, 8 mg/kg i.p. once a day for 8 days from day 1
  time to death: significant prolongation of time to death
[7]; P. berghei-infected mice
  reduction of parasitemia: comparable reduction of parasitemia
[7]; P. berghei-infected mice, two oral doses 100 μmoles/kg
  reduction of parasitemia compared with control mice: 90%
[7]; mice
  in vivo activity against P. berghei relative to chloroquine or artemisinin: in vivo activity against P. berghei greater than chloroquine or artemisinin

## O=C1CCCN2[C@@H](CC1)C[C@]13CN4CCCC/C=C\CC[C@](O)(C=C(c5nccc6c5[nH]c5ccccc56)[C@@H]1CC4)[C@H]23 [Manzamine E]
[9]
  IC50: 35.5 µM
[10]; human PBM cells
  EC50: 18.7 µM
[1]; M. tuberculosis H37Rv
  MIC: 3.13 µg/mL (≈ 5.54 µM)
[1]; [19]
  % Inhibition: 99%

## O[C@]12C=C(c3nccc4c3[nH]c3ccccc34)[C@@H]3CCN(CCCC/C=C\CC1)C[C@@]31CC/C=C\CCCCN[C@@H]12 [Manzamine J]
[1]; [19]
  % Inhibition: 99%
[1]; [20]
  MIC: < 12.5 µg/mL

## CO[C@H]1/C=C/O[C@@]2(C)Oc3c(C)c(O)c4c(O)c(c(/C=N/N5CCN(C)CC5)c(O)c4c3C2=O)NC(=O)/C(C)=C\C=C\[C@H](C)[C@H](O)[C@@H](C)[C@@H](O)[C@@H](C)[C@H](OC(C)=O)[C@@H]1C [Rifampin, reference compound]
[1]
  % Inhibition: 100%
[1]; Mycobacterium tuberculosis, H37RV
  MIC: 0.25 µg/mL (≈ 0.304 µM)

## O=C1CCCN2[C@@H](CC1)C[C@]13CN4CCCC/C=C\CC[C@](O)(C=C(c5nccc6c5[nH]c5c(O)cccc56)C1CC4)[C@H]23 (stereo partly drawn) [ent-Manzamine F, ent-manzamine F]
[9]
  IC50: 40.8 µM
[10]; human PBM cells
  EC50: 94.8 µM
[1]; M. tuberculosis H37Rv
  MIC: >12.5 µg/mL

## O[C@@H]1CCCN2CC[C@@H]1O[C@@]13CC[C@@H](OC[C@]45CN6CCCC/C=C\CC[C@](O)(C=C(c7nccc8c7[nH]c7ccccc78)[C@@H]4CC6)[C@H]25)[C@@H](O)CCN1[C@@H]1[C@]2(CN4CCCC/C=C\CC[C@]1(O)C=C(c1nccc5c1[nH]c1ccccc15)[C@@H]2CC4)C3 [neo-Kauluamine, neo-kauluamine]
[1]; [19]
  % Inhibition: 44%
[1]; [20]
  MIC: > 12.5 µg/mL
[15]
  IC50: 1 µg/mL (≈ 0.859 µM)

## (+)-8-Hydroxymanzamine A
[8]
  Cytotoxicity TC50: 320 ng/mL
[16]
  cytotoxicity, reported: inactive
[4]; P. falciparum D6 clone
  D6 Clone IC50: 0.006 µg/mL
[5]; P. falciparum W2 clone
  W2 Clone IC50: 0.008 µg/mL
[1]; M. tuberculosis H37Rv
  MIC: <6.25 µg/mL
[1]; [19]
  % Inhibition: 100%

## (−)-12, 34-Oxamanzamine F
[9]
  IC50: 75.2 µM
[10]; human PBM cells
  EC50: 20.4 µM

## Manzamine L
[1]; M. tuberculosis H37Rv
  MIC: <12.5 µg/mL
[1]; [19]
  % Inhibition: 99%

## ent-8-hydroxy-manzamine A [ent-8-Hydroxymanzamine A]
[9]
  IC50: 4.9 µM
[17]
  cytotoxicity IC50: 0.25 µg/mL
[10]; human PBM cells
  EC50: 44.2 µM
[1]; M. tuberculosis H37Rv
  MIC: 3.13 µg/mL
[1]; [19]
  % Inhibition: 99%
[7]; P. berghei-infected mice
  reduction of parasitemia: efficiently reduced parasitemia
[7]; [22]
  average survival days: 9 to 11 days
[7]; mice
  in vivo activity against P. berghei relative to chloroquine or artemisinin: in vivo activity against P. berghei greater than chloroquine or artemisinin

## kauluamine
[18]
  cytotoxicity: inactive
